Measurements published in patent publication US12227521B2, “CGRP antagonist compounds” (Nxera Pharma UK Limited, priority 2019, dated 2025).

Target: T1, human CGRP receptor (Homo sapiens, UniProt O60894+Q16602)
T1 construct: SK-N-MC endogenously expressing the human CGRP receptor; endogenous in cells; host or cells: SK-N-MC human neuroblastoma cells
Experiment: cAMP functional assay (HTRF cAMP dynamic-2) in SK-N-MC cells
Format: cell-based
Settings: SK-N-MC cells endogenously expressing human CGRP receptor; challenge with EC80 human CGRP (0.3 nM); functional pKb converted from pIC50 by modified Cheng-Prussoff equation
Procedure: cAMP production following receptor activation was determined using the Homogeneous Time-Resolved Fluorescence (HTRF) cAMP dynamic-2 assay (Cisbio, France). The human neuroblastoma cell line SK-N-MC endogenously expressing the human CGRP receptor was seeded at a density of 12,500 cells/well in solid walled 96 well half area plates (Costar, Catalog Number 3688, Corning Life Sciences, Germany). After 16 h incubation at 37° C. media was removed and cells were incubated at 37° C. for 30 min in serum free media containing 500 μM IBMX (Tocris, Abingdon, UK, Catalog Number 2845) and increasing concentrations of test antagonist. Following this cells were challenged with an EC80 concentration of human CGRP (0.3 nM) for a further 30 m at 37°) and then cAMP production was determined as manufacturer's instructions before plates were read on a PheraStar fluorescence plate reader (BMG LabTech, Germany). IC50 values were derived from the inhibition curve. The pIC50 values (where pIC50=−log10 IC50) were converted to a functional pKb value using a modified Cheng-Prussoff equation where Kd=agonist EC50 and L hot=agonist challenge concentration. The pKb values of certain compounds of the invention are detailed in Table 5.

T1 sequence (Q16602 23-461): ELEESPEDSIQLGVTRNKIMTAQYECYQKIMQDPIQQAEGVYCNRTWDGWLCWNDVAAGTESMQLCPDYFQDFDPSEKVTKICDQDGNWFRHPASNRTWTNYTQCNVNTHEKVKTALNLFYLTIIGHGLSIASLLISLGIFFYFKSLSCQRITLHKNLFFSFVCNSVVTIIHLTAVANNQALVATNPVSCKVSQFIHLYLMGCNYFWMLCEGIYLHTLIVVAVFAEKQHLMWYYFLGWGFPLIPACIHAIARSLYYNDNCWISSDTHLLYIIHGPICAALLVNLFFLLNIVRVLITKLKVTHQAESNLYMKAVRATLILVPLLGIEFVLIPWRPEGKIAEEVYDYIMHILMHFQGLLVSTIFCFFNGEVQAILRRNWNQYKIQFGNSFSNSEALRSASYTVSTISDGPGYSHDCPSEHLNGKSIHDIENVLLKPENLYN
T1 sequence (O60894 27-148): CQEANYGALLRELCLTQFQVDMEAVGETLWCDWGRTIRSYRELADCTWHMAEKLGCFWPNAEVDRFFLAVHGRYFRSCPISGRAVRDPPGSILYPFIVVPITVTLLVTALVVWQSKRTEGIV

**Q.** Which Kb does the source give for `C[C@@H]1[C@H](c2c(F)ccc(F)c2F)C[C@@H]2NC(=O)c3cnc4c(c3)C[C@@]3(C4)C(=O)Nc4ncc(cc43)/C=C/COCCOCCN1C2=O` (single isomer, unassigned) [1-1 Isomer 1] here?
**A.** 6.31 pM
